Source: PMC12040169 (PLOS Biology, 2025)

Experiment: in vitro
Conditions: human, hela cells, % viability

Row | Structure (SMILES) | viability at 28.5 h, 10 µM
1 | O=C(O)/C=C/c1cn([C@@H]2O[C@H](CO)[C@H](O)C2O)c(=O)[nH]c1=O (some centres unmarked) [CBK201270] | 96.7%
2 | Cn1cc([C@H]2C[C@@H](O)[C@@H](CO)O2)c(=O)n(C)c1=O [CBK201272] | 97.3%
3 | OC[C@H]1O[C@@H](n2cnc3c(Cl)nccc32)C[C@H]1O [CBK201273] | 88.5%
4 | Nc1ccn([C@H]2C[C@@H](O)[C@@H](CO)O2)c(=O)n1 [CBK201274] | 96.2%
5 | Nc1nc(N)c2ncn([C@@H]3O[C@H](CO)[C@H](O)C3O)c2n1 (some centres unmarked) [CBK201275] | 102%
6 | CN(C)/C=N/c1nc2c(ccn2C2CC(O)C(CO)O2)c(=O)[nH]1 (centres unmarked) [CBK201276] | 107%
7 | Cn1c(=O)ccn([C@@H]2O[C@H](CO)[C@H](O)C2O)c1=O (some centres unmarked) [CBK201281] | 104%
8 | Cc1ccc(S(=O)(=O)OC[C@H]2O[C@@H](n3ccc(=O)[nH]c3=O)C[C@H]2O)cc1 [CBK201283] | 95.7%
9 | Nc1ncnc2c1[nH]c(=O)n2[C@H]1C[C@@H](O)[C@@H](CO)O1 [CBK201284] | 98.3%
10 | Cc1cc2cn([C@H]3C[C@@H](O)[C@@H](CO)O3)c(=O)nc2o1 [CBK201287] | 96%
11 | O=C(Nc1ncnc2c1ccn2C1CC(O)C(CO)O1)c1ccccc1 (centres unmarked) [CBK201289] | 96.3%
12 | Nc1nc(Cl)c2ncn([C@@H]3O[C@H](CO)[C@H](O)C3O)c2n1 (some centres unmarked) [CBK201291] | 81%
13 | Nc1nc2c(ncn2[C@H]2C[C@@H](O)[C@@H](CO)O2)c(=O)[nH]1 [CBK201294] | 98.1%
14 | O=C(NC/C=C/c1cn(C2OC(CO)C(O)C2O)c(=O)[nH]c1=O)C(F)(F)F (centres unmarked) [CBK201298] | 104%
15 | C=CCOc1nc2c(=O)[nH]c(/N=C/N(C)C)nc2n1C1CC(O)C(CO)O1 (centres unmarked) [CBK201299] | 93.3%
16 | CN1N=C(N)c2cn([C@@H]3O[C@H](COP(=O)(O)O)[C@H](O)C3O)c3ncnc1c23 (some centres unmarked) [CBK201301] | 73.9%
17 | Nc1ncc2ncn([C@H]3C[C@@H](O)[C@@H](CO)O3)c2n1 [CBK201303] | 102%
18 | Nc1ncnc2c1nc1n2[C@@H]2O[C@@H]([C@H](O)C2O)[C@H]1O (some centres unmarked) [CBK201305] | 98.1%
19 | Nc1nc(=O)n([C@@H]2O[C@H](CO)[C@H](O)C2O)cc1I (some centres unmarked) [CBK201306] | 107%
20 | Cc1cn([C@H]2C[C@@H](O)[C@@H](CO)O2)c(=O)nc1N [CBK201307] | 100%
21 | Nc1nc(Cl)c2ccn([C@H]3C[C@@H](O)[C@@H](CO)O3)c2n1 [CBK201309] | 92.4%
22 | Cn1cnc2c(ncn2C2OC(CO)C(O)C2O)c1=N (centres unmarked) [CBK201313] | 102%

Row | Structure (SMILES) | viability at 28.5 h, 10 µM
23 | COc1nc(N)nc2c1ncn2C1CC(O)C(CO)O1 (centres unmarked) [CBK201314] | 89.4%
24 | Cc1cn([C@H]2C[C@@H](O)[C@@H](CN)O2)c(=O)[nH]c1=O [CBK201315] | 96.2%
25 | O=c1ccn([C@H]2C[C@@H](O)[C@@H](CO)O2)c(=O)[nH]1 [CBK201316] | 98.3%
26 | CN(C)/C=N/c1nc2c(nc(Br)n2C2CC(O)C(CO)O2)c(=O)[nH]1 (centres unmarked) [CBK201319] | 84.7%
27 | Cc1cn([C@H]2C[C@@H](O)[C@@H](CO)O2)c(=O)n(CCC#N)c1=O [CBK201322] | 98.4%
28 | Nc1nc(=O)[nH]c2c1ncn2[C@H]1C[C@@H](O)[C@@H](CO)O1 [CBK201323] | 86%
29 | COC1C(O)C(CO)OC1n1cnc2c(=O)[nH]c(N)nc21 (centres unmarked) [CBK201324] | 96.2%
30 | Nc1ncnc2c1cnn2[C@H]1C[C@@H](O)[C@@H](CO)O1 [CBK201325] | 98%
31 | Nc1ncn([C@H]2C[C@@H](O)[C@@H](CO)O2)c(=O)n1 [CBK201329] | 92.8%
32 | CN(C)/C=N/c1nc(=O)n([C@H]2CC(O)[C@@H](CO)O2)cc1/C=C/C(=O)NCCCCCCNC(=O)C(F)(F)F (some centres unmarked) [CBK201330] | 97.1%
33 | Nc1nc2c(nc(Br)n2[C@H]2C[C@@H](O)[C@@H](CO)O2)c(=O)[nH]1 [CBK201333] | 108%
34 | CCOc1nc(=O)c(C)cn1C1CC(O)C(CO)O1 (centres unmarked) [CBK201334] | 96.5%
35 | CONc1nc(/N=C/N(C)C)nc2c1ncn2C1CC(O)C(CO)O1 (centres unmarked) [CBK201335] | 92.7%
36 | COCC1OC(n2cc(C)c(=O)[nH]c2=O)CC1O (centres unmarked) [CBK201338] | 94.5%
37 | Nc1ncnc2c1ncn2[C@H]1C[C@@H](O)[C@@H](CO)O1 [CBK201382] | 94.9%
38 | Cc1nc(COc2ccccc2)sc1C(=O)N1CCC(C(N)=O)CC1 [CBK202603] | 103%
39 | O=C(O)CN1C(=O)[C@@H]2Cc3ccccc3CN2C1=O [CBK202728] | 82.8%
40 | CC(=O)Nc1sc2c(c1-c1nc3ccccc3s1)CCN(C(C)C)C2 [CBK211288] | 3.98%
41 | COCCNC(=O)C1CCN(c2nc3c(-c4ccccc4F)csc3c(=O)[nH]2)CC1 [CBK215434] | 92.6%
42 | CN(C)CCNC(=O)C1CCN(c2nc3c(-c4ccccc4F)csc3c(=O)[nH]2)CC1 [CBK215437] | 85.1%
43 | COc1ccc(CNC(=O)C2CCCN(c3nc4c(-c5ccccc5)csc4c(=O)[nH]3)C2)cc1 (centres unmarked) [CBK215464] | 95.2%
44 | NC(=O)CNC(=O)C1CCCN(c2nc3c(-c4ccccc4)csc3c(=O)[nH]2)C1 (centres unmarked) [CBK215487] | 112%

Row | Structure (SMILES) | viability at 28.5 h, 10 µM
45 | O=C(NCc1cccnc1)C1CCCN(c2nc3c(-c4ccccc4)csc3c(=O)[nH]2)C1 (centres unmarked) [CBK215492] | 112%
46 | O=C(NCCc1cccnc1)C1CCCN(c2nc3c(-c4ccccc4)csc3c(=O)[nH]2)C1 (centres unmarked) [CBK215495] | 88.7%
47 | COc1ccc(CNC(=O)C2CCCN(c3nc4c(-c5ccc(C)cc5)csc4c(=O)[nH]3)C2)cc1 (centres unmarked) [CBK215530] | 112%
48 | Cc1cccc(-c2csc3c(=O)[nH]c(N4CCC(C(=O)NCc5ccncc5)CC4)nc23)c1 [CBK215625] | 106%
49 | COCCCNC(=O)C1CCN(c2nc3c(-c4cccc(C)c4)csc3c(=O)[nH]2)CC1 [CBK215630] | 96.6%
50 | Cc1cccc(-c2csc3c(=O)[nH]c(N4CCC(C(=O)NCCN(C)C)CC4)nc23)c1 [CBK215633] | 95.8%
51 | Cc1cccc(-c2csc3c(=O)[nH]c(N4CCC(C(=O)NCCN5CCOCC5)CC4)nc23)c1 [CBK215640] | 105%
52 | Cc1cccc(-c2csc3c(=O)[nH]c(N4CCC(C(=O)N5CCOCC5)CC4)nc23)c1 [CBK215644] | 89.7%
53 | CCCC(N)CCCCCC(=O)O (centres unmarked) [CBK217078] | 91.8%
54 | CC(C)CC(NS(=O)(=O)c1cccc2nsnc12)C(=O)O (centres unmarked) [CBK217288] | 94.2%
55 | Cc1ccc(S(=O)(=O)NC(Cc2ccccc2)C(=O)O)cc1 (centres unmarked) [CBK217645] | 102%
56 | Cc1ccc(OCC(=O)NC(Cc2ccccc2)C(=O)O)cc1 (centres unmarked) [CBK217681] | 102%
57 | O=C(NC(Cc1c[nH]c2ccccc12)C(=O)O)c1ccco1 (centres unmarked) [CBK217706] | 92.5%
58 | N#CC1=C(N)n2c(s/c(=C\c3ccc(O)cc3)c2=O)=C(C#N)C1c1ccc(O)cc1 (centres unmarked) [CBK217780] | 103%
59 | O=C(O)C(Cc1cnc[nH]1)N1C(=O)c2ccccc2C1=O (centres unmarked) [CBK217815] | 110%
60 | O=C(O)CSc1n[nH]c(=O)[nH]c1=O [CBK217819] | 94.8%
61 | O=c1c(Oc2ccccc2Br)c(C(F)(F)F)oc2c(CN3CCCC3)c(O)ccc12 [CBK217827] | 96%
62 | O=c1c2ccccc2nc(CSc2[nH]cnc3ncnc2-3)n1-c1ccc(Cl)c(Cl)c1 [CBK217854] | 93.9%
63 | O=C(O)C1CCCN1S(=O)(=O)c1ccc(Cl)c(Cl)c1 (centres unmarked) [CBK217856] | 99.1%
64 | COC(=O)CCNc1n[nH]c(=O)[nH]c1=O [CBK217927] | 90.4%
65 | CC1(C(=O)O)NC(c2ccccc2O)C2C(=O)N(Cc3ccccc3)C(=O)C21 (centres unmarked) [CBK218007] | 90.6%
66 | CC1(C)CC(CCNC(=O)CCC(=O)O)(c2ccccc2)CCO1 (centres unmarked) [CBK218198] | 85.7%

Row | Structure (SMILES) | viability at 28.5 h, 10 µM
67 | Cn1c(=O)c2c(nc(N3CCOCC3)n2CCC/N=C2\CCCCN2)n(C)c1=O [CBK218356] | 105%
68 | CSCCC(C(=O)O)N1C(=O)c2ccccc2C1=O (centres unmarked) [CBK218448] | 102%
69 | O=[N+]([O-])c1ccc(CN2CCN(Cc3c[nH]c4ccccc34)CC2)cc1 [CBK218620] | 92.3%
70 | O=[N+]([O-])c1cc(CN2CCN(c3ccccc3)CC2)c(O)c2ncccc12 [CBK218696] | 99.6%
71 | O=c1oc2ccccc2c(NCCN2CCCCC2)c1[N+](=O)[O-] [CBK218805] | 92%
72 | O=c1[nH]cnc2c1nc(S)n2C1OC(CO)C(O)C1O (centres unmarked) [CBK218834] | 96.4%
73 | Cc1cc(=O)n2c3c(cc(S(=O)(=O)NC4CC4)cc13)CC2 [CBK218959] | 95.9%
74 | N#CC1=C(N)Oc2cc(O)ccc2C1c1ccccc1 (centres unmarked) [CBK219303] | 90.3%
75 | O=c1c(Cc2ccccc2)c(O)c2ccccc2n1Cc1ccccc1 [CBK219368] | 85.8%
76 | CCC(=O)Nc1ccccc1C(=O)C(=O)O [CBK219398] | 120%
77 | CCCCc1c(O)c2ccccc2n(Cc2ccccc2)c1=O [CBK219416] | 106%
78 | Cc1ccc2nc(NCc3ccco3)c(/C=N/Cc3ccco3)c(=O)n2c1 [CBK220353] | 80.4%
79 | O=C(CN1C(=O)c2ccccc2C1=O)NCC1COc2ccccc2O1 (centres unmarked) [CBK222526] | 96.8%
80 | NNC(=O)CSc1nnc(-c2ccccc2)n1-c1ccccc1 [CBK223486] | 92.5%
81 | S=c1nc(-c2ccco2)n(Cc2ccccc2)c(=S)n1/C(=N/Cc1ccccc1)c1ccco1 [CBK223550] | 108%
82 | O=C1CC(=O)N(Cc2ccccc2)C(=O)N1 [CBK224014] | 91.7%
83 | O=C(O)CSc1nc2ccccc2[nH]1 [CBK225127] | 95.3%
84 | COc1cc(NC(=O)c2ccccc2)c(C(=O)O)cc1OC [CBK227754] | 89.9%
85 | N/C(CC(=O)Nc1cc(Cl)cc(Cl)c1)=N\O [CBK228614] | 105%
86 | O=C(O)C1C(C(=O)O)C1C(=O)O (centres unmarked) [CBK230432] | 94.9%
